Measurements taken from PubChem BioAssay AID1963864 (Molecular Pharmacology Branch, DTP, NCI, 2024).
“And” between values parts separate entries of the source, which are not always exact repeats. Equal entries are not always repeated.

Tested on: KRAS PDC multicell spheroid viability
Assay: Anticancer human tumor 521955-158-R6-J3-PDC patient-derived pancreatic carcinoma cell line growth inhibition [KRAS2]
Conditions: for viability, T/C: stronger effect = lower value
From the text: Multicellular complex tumor spheroid response to RAS pathway inhibitors in combination with a targeted agents in patient-derived cell lines with oncogenic KRAS variants from multiple cancer types
A high-throughput screen of multi-cell type tumor spheroids was designed to identify active combinations of targeted small molecules and KRAS pathway inhibitors. Complex spheroids include a stromal component modeled by human endothelial cells (HUVEC) and fibroblasts modeled by human mesenchymal stem cells (MSCs). The concentration ranges selected for each drug and investigational agent were based upon clinically achievable concentrations if the clinical Cmax of the agent was known.
Compounds. The drugs and investigational agents: BI-3406 (NSC825286), BAY-293 (NSC824723), batoprotafib (TNO155; NSC825523), sotorasib (AMG 510; NSC818433), MRTX1257 (NSC819558), elimusertib (BAY 1895344; NSC800525), molibresib (GSK525762; NSC774829), temuterkib (LY3214996; NSC803410), venetoclax (NSC766270), alisertib (NSC759677), olaparib (NSC753686), talazoparib (NSC767125), erdafitinib (NSC781556), ipatasertib (NSC767898), cabozantinib (NSC761068), nintedanib (NSC756659), abemaciclib (NSC768073), docetaxel (NSC628503), trametinib (NSC758246), and sapanisertib (NSC764658) were obtained from the National Cancer Institute (NCI) Developmental Therapeutics Program Chemical Repository. The FDA-approved anticancer drug set is available from the Developmental Therapeutics Program. […] The stock solutions were prepared in dimethyl sulfoxide (DMSO, Sigma-Aldrich, St. Louis, MO, cat. D2650) at 800-fold the tested concentration and stored at -70 degrees C prior to their use. All drugs and investigational agents were tested over a range starting from a high concentration at or near the clinical Cmax and decreasing in half-log increments. If the clinical Cmax for an agent had not been determined, the highest concentration tested was 10 microM.
Cell Culture. All cells were maintained in an incubator at 37 degrees C and 5% CO2 with 95% humidity. The PDC lines were cultured according to standard operating procedures established by the NCI PDMR (https://pdmr.cancer.gov/sops/default.htm). Briefly, all PDCs were thawed and cultured in Matrigel-coated flasks prepared with a working solution of 1X Ham's F-12 nutrient mix, without supplementation (Invitrogen, Waltham, MA, cat. 11765054), 100 U/mL penicillin-streptomycin (Invitrogen, cat. 15140122), and 2.5% Matrigel (Corning Inc., Corning, NY, cat. 354248) for the first three passages. All PDCs were cultured in complete DMEM/F-12 media containing advanced DMEM/F-12 (Invitrogen, cat. 12634028), 4.9% defined fetal bovine serum, heat inactivated (HyClone Laboratories Inc., Logan, UT, cat. SH30070.03HI), 389 ng/mL hydrocortisone (Sigma-Aldrich, cat. H4001), 9.7 ng/mL human EGF recombinant protein (Invitrogen, cat. PHG0313), 23.4 microg/mL adenine (Sigma-Aldrich, cat. A2786), 97.3 U/mL penicillin-streptomycin (Invitrogen, cat. 15140122), 1.9 mM L-glutamine (Invitrogen, cat. 25030081), and 9.7 microM Y-27632 dihydrochloride (Tocris Bioscience, Bristol, United Kingdom, cat. 1254). The PDCs were cultured in complete DMEM/F12 media without 9.7 microM Y-27632 dihydrochloride for at least two passages prior to the screen. The established cell line HOP-62 was cultured in RPMI 1640 medium, HEPES (Invitrogen, cat. 22400105) with 10% defined fetal bovine serum (HyClone Laboratories Inc., cat. SH30070.03) and 2 mM L-glutamine (Invitrogen, cat. 25030081). The pooled donor HUVEC were cultured in endothelial cell growth medium 2 (PromoCell, Heidelberg, Germany, cat. C-22011) and the hMSC were cultured in mesenchymal stem cell growth medium 2 (PromoCell, cat. C-28009). For all experiments, HUVEC and hMSC were used at passages </=5, while the malignant cell lines were used at passages </=15. […]

[1] = compound alone, run of 08/19/2021
[2] = compound alone, run of 08/26/2021
[3] = compound alone, run of 09/02/2021
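Also: drug exposure lasted seven days.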
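For viability, T/C in this document: 100% = DMSO vehicle wells and lower means fewer viable cells.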

Structure (SMILES)	viability, T/C (compound 0.1 µM)	viability, T/C (compound 0.316 µM)	IC50 [1]	IC50 [2]	IC50 [3]	viability, T/C (compound 0.0316 µM)	viability, T/C (compound 0.0001 µM)	viability, T/C (compound 0.000316 µM)	viability, T/C (compound 0.00316 µM)	viability, T/C (compound 0.01 µM)	viability, T/C (compound 1 µM)	viability, T/C (compound 3.16 µM)	IC50 (curve of compound)	viability, T/C (compound 10 µM)	viability, T/C (compound 0.001 µM)
C=CC(=O)N1CCN(c2nc(=O)n(-c3c(C)ccnc3C(C)C)c3nc(-c4c(O)cccc4F)c(F)cc23)C(C)C1 (stereo not drawn)	94.8% [middle of 16 runs]	97.2% [middle of 16 runs]	> 10 µM	> 10 µM	> 10 µM										
C=CC(=O)N1CCN(c2nc(OCC3CCCN3C)nc3c2CCN(c2cccc4cccc(C)c24)C3)CC1CC#N (stereo not drawn)	94.9% [middle of 16 runs]				2.01 µM [middle of 5 runs]	91.1% [middle of 16 runs]									
CC(=O)Nc1cccc(-n2c(=O)n(C3CC3)c(=O)c3c(Nc4ccc(I)cc4F)n(C)c(=O)c(C)c32)c1						44% [middle of 5 runs]	95.7% [middle of 5 runs]	99.3% [middle of 5 runs]	85.6% [middle of 5 runs]	72.2% [middle of 5 runs]					
CC(=O)OC12COC1CC(O)C1(C)C(=O)C(O)C3=C(C)C(OC(=O)C(O)C(NC(=O)OC(C)(C)C)c4ccccc4)CC(O)(C(OC(=O)c4ccccc4)C21)C3(C)C (stereo not drawn)	73.6% [middle of 5 runs]	86.8% [middle of 5 runs]				77.4% [middle of 5 runs]				87.1% [middle of 5 runs]	101% [middle of 5 runs]	119% [middle of 5 runs]	> 3.16 µM		
CC(C)NCC(C(=O)N1CCN(c2ncnc3c2C(C)CC3O)CC1)c1ccc(Cl)cc1 (stereo not drawn)	85.2% [middle of 5 runs]	83.1% [middle of 5 runs]				94.6% [middle of 5 runs]					77% [middle of 5 runs]	76.1% [middle of 5 runs]	> 10 µM	70.1% [middle of 5 runs]	
CC(C)n1nc(-c2ccc3oc(N)nc3c2)c2c(N)ncnc21	50.7% [middle of 5 runs]					67.2% [middle of 5 runs]		91.3% [middle of 5 runs]	82.9% [middle of 5 runs]	74.3% [middle of 5 runs]			> 0.1 µM and 0.0957 µM		91.3% [middle of 5 runs]
CC1(C)CCC(CN2CCN(c3ccc(C(=O)NS(=O)(=O)c4ccc(NCC5CCOCC5)c([N+](=O)[O-])c4)c(Oc4cnc5[nH]ccc5c4)c3)CC2)=C(c2ccc(Cl)cc2)C1	96.3% [middle of 5 runs]	90.6% [middle of 5 runs]				96.5% [middle of 5 runs]					97.9% [middle of 5 runs]				
CC1COCCN1c1cc(-c2ccnn2C)c2ccnc(-c3ccn[nH]3)c2n1 (stereo not drawn)	83.4% [middle of 5 runs]	78.2% [middle of 5 runs]				90.3% [middle of 5 runs]				99.8% [middle of 5 runs]	84.7% [middle of 5 runs]	86.6% [middle of 5 runs]	> 3.16 µM		
CC1OCC2(CCN(c3cnc(Sc4ccnc(N)c4Cl)c(N)n3)CC2)C1N (stereo not drawn)		86.6% [middle of 19 runs]	> 10 µM	> 10 µM	> 10 µM	97.6% [middle of 4 runs]							> 10 µM		
CCN1CCN(Cc2ccc(Nc3ncc(F)c(-c4cc(F)c5nc(C)n(C(C)C)c5c4)n3)nc2)CC1	81.5% [middle of 5 runs]	88.2% [middle of 5 runs]				85.5% [middle of 5 runs]			101% [middle of 5 runs]	86.9% [middle of 5 runs]	95.5% [middle of 5 runs]		> 1 µM		
CCNC(=O)CC1N=C(c2ccc(Cl)cc2)c2cc(OC)ccc2-n2c(C)nnc21 (stereo not drawn)	90.3% [middle of 5 runs]	84.9% [middle of 5 runs]				96.8% [middle of 5 runs]						79.8% [middle of 5 runs]	> 10 µM	79.4% [middle of 5 runs]	
CN(C)C/C=C/C(=O)Nc1cc2c(Nc3ccc(F)c(Cl)c3)ncnc2cc1O[C@H]1CCOC1	63.5% [middle of 5 runs]					62.6% [middle of 5 runs]		93.6% [middle of 5 runs]	81.6% [middle of 5 runs]	68.3% [middle of 5 runs]			> 0.1 µM		82.4% [middle of 5 runs]
CNCc1ccccc1-c1csc(C(C)Nc2nc(C)nc3cc(OC)c(OC)cc23)c1 (stereo not drawn)	84.1% [middle of 16 runs]	79% [middle of 16 runs]		1.48 µM [middle of 5 runs]	1.4 µM [middle of 5 runs]									0.23% [middle of 15 runs]	
COC(=O)c1ccc2c(C(=Nc3ccc(N(C)C(=O)CN4CCN(C)CC4)cc3)c3ccccc3)c(O)[nH]c2c1	109% [middle of 5 runs]					96.5% [middle of 5 runs]							3.54 µM [middle of 5 runs]	0.34% [middle of 5 runs]	
COc1cc(Nc2ncc3c(n2)-c2ccc(Cl)cc2C(c2c(F)cccc2OC)=NC3)ccc1C(=O)O	90.8% [middle of 5 runs]	96.9% [middle of 5 runs]				93.8% [middle of 5 runs]					90.7% [middle of 5 runs]		> 10 µM		
COc1cc(OC)cc(N(CCNC(C)C)c2ccc3ncc(-c4cnn(C)c4)nc3c2)c1	96.3% [middle of 4 runs]	96.1% [middle of 4 runs]				96% [middle of 4 runs]					94% [middle of 4 runs]	110% [middle of 4 runs]	5.96 µM [middle of 4 runs]	7.96% [middle of 4 runs]	
COc1cc2nc(C)nc(NC(C)c3cc(N)cc(C(F)(F)F)c3)c2cc1OC1CCOC1 (stereo not drawn)	86.7% [middle of 17 runs]	86.7% [middle of 17 runs]		6.52 µM [middle of 5 runs]											
COc1cc2nccc(Oc3ccc(NC(=O)C4(C(=O)Nc5ccc(F)cc5)CC4)cc3)c2cc1OC		95.7% [middle of 5 runs]											> 10 µM		
Cn1nccc1Nc1nccc(-c2cc3c(s2)C(C)(C)N(CCN2CCOCC2)C3=O)n1	112% and 98.5%	123% and 98.7%				109% and 83.6%					105% and 91.8%	85.4% and 76%	> 10 µM	73.7% and 66.2%	
Cn1ncnc1[C@H]1c2n[nH]c(=O)c3cc(F)cc(c23)N[C@@H]1c1ccc(F)cc1	89.8% [middle of 5 runs]							91.8% [middle of 5 runs]		104% [middle of 5 runs]			> 0.1 µM		95.2% [middle of 5 runs]
O=C(c1cc(Cc2n[nH]c(=O)c3ccccc23)ccc1F)N1CCN(C(=O)C2CC2)CC1		86.2% [middle of 5 runs]				89.9% [middle of 5 runs]						78.3% [middle of 5 runs]	> 10 µM		
